The results in this text go back to patent US5753617A, “Peptide inhibitors of cellular adhesion” (Centocor, Inc., priority 1995, dated 1998).

Where a SMILES comes first, the peptide text is derived from it. Bridges are numbered along the chain shown (N, C = ends). [ ]: non-standard residue; d: D form. Tic = O=C(O)[C@@H]1Cc2ccccc2CN1

What is called IC50 is the concentration that inhibits the measured activity by half. A lower IC50 goes with greater potency.

This test deals with T1, P-selectin (Homo sapiens, UniProt P16109).
T1 construct: P-selectin is isolated from human platelet lysates; from tissue; host or cells: human platelets (outdated platelet packs from a blood bank)
T1 sequence (P16109 42-830): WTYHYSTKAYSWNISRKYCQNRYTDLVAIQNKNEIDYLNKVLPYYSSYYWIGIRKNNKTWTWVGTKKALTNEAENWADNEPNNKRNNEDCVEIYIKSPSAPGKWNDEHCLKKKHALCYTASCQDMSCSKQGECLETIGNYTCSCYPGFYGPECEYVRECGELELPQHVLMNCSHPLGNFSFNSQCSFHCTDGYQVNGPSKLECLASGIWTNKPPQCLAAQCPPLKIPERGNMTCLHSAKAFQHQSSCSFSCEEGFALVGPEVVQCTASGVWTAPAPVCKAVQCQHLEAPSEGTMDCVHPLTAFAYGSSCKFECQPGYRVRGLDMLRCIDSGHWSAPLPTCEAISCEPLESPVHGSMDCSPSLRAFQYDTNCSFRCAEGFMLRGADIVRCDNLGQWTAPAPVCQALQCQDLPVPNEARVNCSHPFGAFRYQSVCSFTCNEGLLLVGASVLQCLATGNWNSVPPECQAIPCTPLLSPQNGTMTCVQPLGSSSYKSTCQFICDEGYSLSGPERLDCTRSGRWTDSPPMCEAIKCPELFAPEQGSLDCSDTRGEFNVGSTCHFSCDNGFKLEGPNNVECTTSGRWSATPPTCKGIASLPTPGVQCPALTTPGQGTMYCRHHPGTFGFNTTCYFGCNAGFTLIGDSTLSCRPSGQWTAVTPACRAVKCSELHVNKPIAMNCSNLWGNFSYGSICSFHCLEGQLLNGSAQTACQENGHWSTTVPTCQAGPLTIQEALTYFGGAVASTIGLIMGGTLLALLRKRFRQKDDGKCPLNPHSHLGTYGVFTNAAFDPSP
In words: Inhibition of human neutrophil adhesion to purified P-selectin immobilized on plastic wells. It is filed as cell-based. To be noted: inhibiting the binding of human neutrophils to P-selectin. The procedure, abridged: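 Isolated human neutrophils (2×10^5 per well) in HBSS with Ca2+/Mg2+ and HSA added to wells coated overnight at 4° C with platelet-derived P-selectin (5 micrograms/mL), HSA-blocked; 20 min at 22° C. Nonadherent cells removed by inverted centrifugation at 150 g; adherent cells quantified by myeloperoxidase activity.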
Regarding `CC(C)[C@@H](NC(=O)[C@@H](Cc1c[nH]c2ccccc12)NC(=O)[C@H](NC(=O)[C@@H](Cc1c[nH]c2ccccc12)NC(=O)[C@H]1CSC[C@@H](NC(=O)[C@@H](CCCCN)NC(=O)[C@H](N)CCCNC(=N)N)C(=O)NCC(=O)N[C@@H](Cc2ccccc2)C(=O)N1)[C@H](C)O)C(N)=O` [(81)], the IC50 is 10.6 µM. For `CC(C)[C@@H](NC(=O)[C@@H](Cc1c[nH]c2ccccc12)NC(=O)[C@H](NC(=O)[C@@H]1CCCN1C(=O)[C@H]1CSSC[C@@H](NC(=O)[C@@H](CCCCN)NC(=O)[C@H](N)CCCNC(=N)N)C(=O)NCC(=O)N[C@@H](Cc2ccccc2)C(=O)N1)[C@H](C)O)C(N)=O` [(82)] (H-[dR][dK][dC]GF[dC]P[dT][dW][dV]-NH2; disulfide 3-6) the value was 547 µM; for `CC(C)[C@@H](NC(=O)[C@@H](Cc1c[nH]c2ccccc12)NC(=O)[C@H](NC(=O)[C@@H](Cc1c[nH]c2ccccc12)NC(=O)[C@H]1CSSC[C@@H](NC(=O)[C@@H](CCCCN)NC(=O)[C@H](N)CCCNC(=N)N)C(=O)N2CCC[C@H]2C(=O)NCC(=O)N1)[C@H](C)O)C(N)=O` [(83)] (H-[dR][dK][dC]PG[dC][dW][dT][dW][dV]-NH2; disulfide 3-6), 983 µM. In the case of `CC(C)[C@@H](NC(=O)[C@@H](Cc1c[nH]c2ccccc12)NC(=O)[C@H](NC(=O)[C@@H](Cc1c[nH]c2ccccc12)NC(=O)[C@H]1CSSC[C@@H](NC(=O)[C@@H](CCCCN)NC(=O)[C@H](N)CCCNC(=N)N)C(=O)NCC(=O)N2Cc3ccccc3C[C@H]2C(=O)N1)[C@H](C)O)C(N)=O` [(86)] (H-[dR][dK][dC]G[Tic][dC][dW][dT][dW][dV]-NH2; disulfide 3-6) it was 83.4 µM; in that of `CC(C)[C@@H](NC(=O)[C@@H](Cc1c[nH]c2ccccc12)NC(=O)[C@H](NC(=O)[C@@H](Cc1c[nH]c2ccccc12)NC(=O)[C@H]1CSSC[C@@H](NC(=O)[C@@H](CCCCN)NC(=O)[C@H](N)CCCNC(=N)N)C(=O)NCC(=O)N[C@@H](Cc2ccc(O)cc2)C(=O)N1)[C@H](C)O)C(N)=O` [(87)] (H-[dR][dK][dC]GY[dC][dW][dT][dW][dV]-NH2; disulfide 3-6), 5.7 µM; in that of `CC(C)[C@@H](NC(=O)[C@@H](Cc1c[nH]c2ccccc12)NC(=O)[C@H](NC(=O)[C@@H](Cc1c[nH]c2ccccc12)NC(=O)[C@@H]1CSSC[C@@H](NC(=O)[C@@H](CCCCN)NC(=O)[C@H](N)CCCNC(=N)N)C(=O)NCC(=O)N[C@@H](Cc2ccccc2)C(=O)N1)[C@H](C)O)C(N)=O` [(91)] (H-[dR][dK][dC]GFC[dW][dT][dW][dV]-NH2; disulfide 3-6), 42.7 µM. For `CC[C@H](C)[C@@H]1NC(=O)[C@H](NC(=O)[C@@H](CCCCN)NC(=O)[C@H](N)CCCNC(=N)N)CSSC[C@H](C(=O)N[C@H](Cc2c[nH]c3ccccc23)C(=O)N[C@@H](C(=O)N[C@H](Cc2c[nH]c3ccccc23)C(=O)N[C@@H](C(N)=O)C(C)C)[C@H](C)O)NC(=O)[C@@H]2CCCN2C1=O` [(95)] (H-[dR][dK][dC]IP[dC][dW][dT][dW][dV]-NH2; disulfide 3-6) the value was 26.8 µM. In turn, `CC(C)[C@@H](NC(=O)[C@H](Cc1c[nH]c2ccccc12)NC(=O)[C@H](NC(=O)[C@@H](Cc1c[nH]c2ccccc12)NC(=O)[C@H]1CSSC[C@@H](NC(=O)[C@@H](CCCCN)NC(=O)[C@H](N)CCCNC(=N)N)C(=O)NCC(=O)N[C@@H](Cc2ccccc2)C(=O)N1)[C@H](C)O)C(N)=O` [(96)] (H-[dR][dK][dC]GF[dC][dW][dT]W[dV]-NH2; disulfide 3-6) showed a 50% inhibitory concentration (IC50) of 26.7 µM.

Regarding `CC(C)[C@@H](NC(=O)[C@@H](Cc1c[nH]c2ccccc12)NC(=O)[C@@H](NC(=O)[C@@H](Cc1c[nH]c2ccccc12)NC(=O)[C@H]1CSSC[C@@H](NC(=O)[C@@H](CCCCN)NC(=O)[C@H](N)CCCNC(=N)N)C(=O)NCC(=O)N[C@@H](Cc2ccccc2)C(=O)N1)[C@@H](C)O)C(N)=O` [(98)] (H-[dR][dK][dC]GF[dC][dW]T[dW][dV]-NH2; disulfide 3-6), the IC50 came out at 28.7 µM.

In turn, `CC(C)[C@@H](NC(=O)[C@@H](Cc1c[nH]c2ccccc12)NC(=O)[C@H](NC(=O)[C@H](Cc1c[nH]c2ccccc12)NC(=O)[C@H]1CSSC[C@@H](NC(=O)[C@@H](CCCCN)NC(=O)[C@H](N)CCCNC(=N)N)C(=O)NCC(=O)N[C@@H](Cc2ccccc2)C(=O)N1)[C@H](C)O)C(N)=O` [(99)] (H-[dR][dK][dC]GF[dC]W[dT][dW][dV]-NH2; disulfide 3-6) showed an IC50 of 3.1 µM. In the case of `CC(C)[C@@H](NC(=O)[C@@H](CCC(N)=O)NC(=O)[C@H](NC(=O)[C@@H](Cc1ccc(O)cc1)NC(=O)[C@H]1CSSC[C@@H](NC(=O)[C@@H](CCCCN)NC(=O)[C@H](N)CCCNC(=N)N)C(=O)NCC(=O)N[C@@H](Cc2ccccc2)C(=O)N1)[C@H](C)O)C(N)=O` [(100)] (H-[dR][dK][dC]GF[dC][dY][dT][dQ][dV]-NH2; disulfide 3-6) it was 88.3 µM; in that of `CC(C)[C@@H](NC(=O)[C@@H](Cc1c[nH]c2ccccc12)NC(=O)[C@H](NC(=O)[C@@H](Cc1c[nH]c2ccccc12)NC(=O)[C@H]1CSSC[C@@H](NC(=O)[C@@H](CCCCN)NC(=O)[C@@H](N)CCCNC(=N)N)C(=O)NCC(=O)N[C@@H](Cc2ccccc2)C(=O)N1)[C@H](C)O)C(N)=O` [(101)] (H-R[dK][dC]GF[dC][dW][dT][dW][dV]-NH2; disulfide 3-6), 33.9 µM. Molecule `CC(=O)N[C@H](CCCCN)C(=O)N[C@@H]1CSSC[C@H](C(=O)N[C@H](Cc2c[nH]c3ccccc23)C(=O)N[C@@H](C(=O)N[C@H](Cc2c[nH]c3ccccc23)C(=O)N[C@@H](C(N)=O)C(C)C)[C@H](C)O)NC(=O)[C@H](Cc2ccc(O)cc2)NC(=O)CNC1=O` [(104)] (Ac-[dK][dC]GY[dC][dW][dT][dW][dV]-NH2; disulfide 2-5) registered an IC50 of 191 µM. For `C[C@H](O)[C@H]1NC(=O)[C@@H](Cc2c[nH]c3ccccc23)NC(=O)[C@H]2CSSC[C@@H](NC(=O)[C@H](NC(=O)[C@H](N)CCCNC(=N)N)CCCCNC(=O)CC[C@H](C(N)=O)NC(=O)[C@@H](Cc3c[nH]c4ccccc34)NC1=O)C(=O)NCC(=O)N[C@@H](Cc1ccccc1)C(=O)N2` [(105)] (H-[dR][dK][dC]GF[dC][dW][dT][dW][dE]-NH2; lactam 2-10; disulfide 3-6; N-terminus assumed) the value was 97.8 µM; for `CC(C)[C@@H](NC(=O)[C@@H](Cc1c[nH]c2ccccc12)NC(=O)[C@H]1CCC(=O)NCCCC[C@@H](NC(=O)[C@H](N)CCCNC(=N)N)C(=O)N[C@@H]2CSSC[C@@H](NC(=O)[C@H](Cc3ccccc3)NC(=O)CNC2=O)C(=O)N[C@H](Cc2c[nH]c3ccccc23)C(=O)N1)C(N)=O` [(106)] (H-[dR][dK][dC]GF[dC][dW][dE][dW][dV]-NH2; lactam 2-8; disulfide 3-6; N-terminus assumed), 8 µM; for `CC[C@@H](C)[C@@H](NC(=O)[C@@H](CCCCN)NC(=O)[C@H](N)CCCNC(=N)N)C(=O)NCC(=O)N[C@@H]1CSSC[C@H](C(=O)N[C@H](Cc2c[nH]c3ccccc23)C(=O)N[C@@H](C(N)=O)C(C)C)NC(=O)[C@@H](Cc2c[nH]c3ccccc23)NC(=O)[C@@H]([C@H](C)CC)NC1=O` [(107)] (H-[dR][dK][dI]G[dC][dI][dW][dC][dW][dV]-NH2; disulfide 5-8), 8 µM.
